Data reported in patent publication US20090203667A1, “PENTADIENAMIDE DERIVATIVES” (Kyowa Hakko Kirin Co., Ltd., priority 2006, published 2009).
pIC50: −log10 of the molar value. Structures can show the parent of a compound that is named as a salt.

Assays:
[1] = molecular target: T1, vanilloid receptor (TRPV1) (Rattus norvegicus, UniProt O35433); assay: [3H]Resiniferatoxin ([3H]RTX) binding experiment using rat spinal cord; conditions: rat spinal cord membrane specimen, 37° C., 60 minutes; read-out: IC50 of [3H]RTX specific binding
T1 construct: The spinal cord was extirpated from an SPF/VAF rat; from tissue; host or cells: rat spinal cord membrane specimen (SPF/VAF rat, Charles River Laboratories Japan Inc.)
Method: [^3H]Resiniferatoxin ([^3H]RTX) Binding Experiment Using Rat Spinal Cord
The spinal cord was extirpated from an SPF/VAF rat (Charles River Laboratories Japan Inc.) and homogenized in an ice-cooled homogenization buffer (10 mmol/L HEPES/NaOH, 5 mmol/L KCl, 5.8 mmol/L NaCl, 2 mmol/L MgCl2, 0.75 mmol/L CaCl2, 12 mmol/L glucose, 137 mmol/L sucrose, pH 7.4). The resulting homogenate was centrifuged at 1000 g for 10 minutes at 4° C. The supernatant was centrifuged at 35000 g for 30 minutes at 4° C. The obtained precipitate was suspended in the homogenization buffer. The suspension was used as a tissue membrane specimen, and the protein concentration was determined using a protein assay staining solution (Bio-Rad Laboratories, US). The thus prepared specimen was stored at −80° C.
The known method [The Journal of Pharmacology and Experimental Therapeutics, 267: 728-733 (1993)] was modified and the modified method was performed. 400 μL of a membrane specimen solution (protein amount: about 50 μg) obtained by diluting the prepared specimen with an assay buffer (10 mmol/L HEPES/NaOH, 5 mmol/L KCl, 5.8 mmol/L NaCl, 2 mmol/L MgCl2, 0.75 mmol/L CaCl2, 12 mmol/L glucose, 137 mmol/L sucrose, 0.25 mg/mL bovine serum albumin, pH 7.4), 50 μL of a test compound solution, and 50 μL of [^3H]RTX (PerkinElmer Life Sciences Inc., US) were mixed and the mixture was incubated at 37° C. for 60 minutes. The reaction mixture was transferred on ice, and 50 μL of previously ice-cooled 2 mg/mL α1 acid glycoprotein (Sigma) was added thereto, and then, the mixture was centrifuged at 12000 g for 15 minutes at 4° C. A procedure in which 0.4 mL of the assay buffer was added to the obtained precipitate and the mixture was centrifuged at 12000 g for 15 minutes at 4° C. was performed twice. The precipitate obtained by the centrifugation was suspended in 0.5 mL of a 0.1 mol/L aqueous NaOH solution. 7 mL of Ultima Gold (Packard, US) was added to the suspension, and the radioactivity of the solution was measured using a liquid scintillation counter (LS6500: Beckman Coulter, Inc., US or TRI-CARB 2700TR: Packard, US). The [^3H]RTX binding amount in the presence of 0.1 μmol/L RTX was considered to be non-specific binding, and the specific binding was calculated by subtracting this value from the total amount of [^3H]RTX binding to the membrane specimen. Then, the replacement amount of the [^3H]RTX specific binding in the presence of the compound to the [^3H]RTX specific binding amount in the absence of the compound was calculated in percent. The IC50 value of the compound in this experiment was obtained from a logistic equation.
The logistic equation was fit to the following equation (equation 205 in the program) in the curve regression program XLfit (IDBS Inc.).
Y: Inhibition ratio X: Concentration of test compound

[2] = test system: entrapment nerve injury rat; assay: Neuropathic pain inhibitory activity in entrapment nerve injury rat (von Frey pain threshold); type: in vivo; conditions: orally administered, dose of 20 mg/kg or less, measured after 1 hour, von Frey filaments
Description: Neuropathic Pain Inhibitory Activity of Compound in Entrapment Nerve Injury Rat
The method of Mosconi, Kruger et al. (Pain, vol. 64, pp. 37-57 (1996)) was modified partially and an entrapment nerve injury rat was produced.
By using a male Crl:CD(SD) rat, the sciatic nerve of the left hind limb was exfoliated under pentobarbital anesthesia, and the exfoliated region was covered with a polyethylene tube (trade name: Intramedic, size: PE-60, manufactured by Becton Dickinson and Company) with a length of 2 mm. On days 14 to 21 after the surgery, the rat was placed in a stainless-steel connected cage (750 mm (length)×210 mm (depth)×170 mm (height)) consisting of 5 cages connected in a row and having a mesh floor and was acclimated to the environment for at least 20 minutes, and then, the pain was evaluated.
The pain was evaluated using von Frey filaments (trade name: touch test sensory evaluator, Model number: model 58011, manufactured by Muromachi Kikai), and the results were calculated as a pain threshold. That is, by using a von Frey filament of different stimulation intensity, stimulation was given to the paw at the injured side of the entrapment nerve injury rat, and the stimulation intensity at which the paw was withdrawn was obtained. Then, the pain threshold (paw withdrawal threshold) (g) was calculated by the up down method of Dixon [Annual Review of Pharmacology and Toxicology, vol. 20, pp. 441-462 (1980)]. Incidentally, the pain threshold of a normal rat was from 10 to 12 g on an average.
In the evaluation of the test compound, a rat having a 50% pain threshold of less than 4 g was used, and the test compound was dissolved in a 0.5% aqueous methyl cellulose solution and orally administered at a dose of 5 mL/kg. After 1 hour, by using von Frey filaments, the pain threshold was measured.

T1 sequence (O35433 whole entry): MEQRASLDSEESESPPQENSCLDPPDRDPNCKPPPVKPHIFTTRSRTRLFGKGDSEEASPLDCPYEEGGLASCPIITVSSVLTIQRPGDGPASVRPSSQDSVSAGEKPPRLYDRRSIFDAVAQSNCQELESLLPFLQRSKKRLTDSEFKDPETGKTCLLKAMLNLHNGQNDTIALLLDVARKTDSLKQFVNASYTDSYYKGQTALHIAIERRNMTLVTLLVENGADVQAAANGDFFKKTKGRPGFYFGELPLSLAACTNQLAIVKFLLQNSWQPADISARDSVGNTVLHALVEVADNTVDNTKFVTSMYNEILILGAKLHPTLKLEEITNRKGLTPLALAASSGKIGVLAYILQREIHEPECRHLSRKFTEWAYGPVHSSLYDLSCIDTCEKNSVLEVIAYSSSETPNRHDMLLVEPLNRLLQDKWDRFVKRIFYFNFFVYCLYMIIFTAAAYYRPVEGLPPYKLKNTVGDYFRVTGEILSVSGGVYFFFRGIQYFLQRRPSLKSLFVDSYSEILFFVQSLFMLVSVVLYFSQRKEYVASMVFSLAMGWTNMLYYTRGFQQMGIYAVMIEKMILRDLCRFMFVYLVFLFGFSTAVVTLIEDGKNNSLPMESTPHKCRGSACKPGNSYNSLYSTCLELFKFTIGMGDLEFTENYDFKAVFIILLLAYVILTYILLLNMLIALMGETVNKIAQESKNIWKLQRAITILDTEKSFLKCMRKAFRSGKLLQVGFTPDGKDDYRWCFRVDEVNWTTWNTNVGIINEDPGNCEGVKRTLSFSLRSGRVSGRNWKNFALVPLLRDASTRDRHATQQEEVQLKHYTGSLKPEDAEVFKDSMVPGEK

With `CCOc1ccc(/C(=C\C=C\C(=O)Nc2cccc3c2CC(O)CN3)c2ccc(C(F)(F)F)cc2)cc1` (stereo not drawn) [Compound 240, (2E,4Z)-5-(4-Ethoxyphenyl)-N-(3-hydroxy-1,2,3,4-tetrahydroquinolin-5-yl)-5-[4-(trifluoromethyl)phenyl]-2,4-pentadienamide monohydrochloride] the pIC50 [1] was greater than 7.00 and the “pain threshold (paw withdrawal threshold)” value (“pain threshold” for short) [2] was “significantly increases the pain threshold”.
`O=C(/C=C/C=C(c1ccc(C(F)(F)F)cc1)c1ccc(C(F)(F)F)cc1)Nc1cccc2cnccc12` [Compound 11, (E)-N-(Isoquinolin-5-yl)-5,5-bis[4-(trifluoromethyl)phenyl]-2,4-pentadienamide] gave a pIC50 [1] greater than 7.00 and a melting point of 164 to 166 °C.
For `O=C(/C=C/C=C(\c1ccccc1)c1ccc(C(F)(F)F)cc1)Nc1cccc2cnccc12` [Compound 59, (2E,4E)-N-(Isoquinolin-5-yl)-5-phenyl-5-[4-(trifluoromethyl)phenyl]-2,4-pentadienamide], the pIC50 [1] was greater than 7.00 and the melting point was 114 to 115 °C.
In the case of `N#Cc1cccc(/C(=C\C=C\C(=O)Nc2cccc3cnccc23)c2ccc(C(F)(F)F)cc2)c1` [Compound 68, (2E,4Z)-5-(3-Cyanophenyl)-N-(isoquinolin-5-yl)-5-[4-(trifluoromethyl)phenyl]-2,4-pentadienamide], the pIC50 [1] was greater than 7.00 and the melting point was 118 to 119 °C.
With `CC(C)(C)Oc1ccc(/C(=C\C=C\C(=O)Nc2cccc3c2CC(O)C(=O)N3)c2ccc(C(F)(F)F)cc2)cc1` (stereo not drawn) [Compound 191, (2E,4Z)-5-(4-tert-Butoxyphenyl)-N-(3-hydroxy-2-oxo-1,2,3,4-tetrahydroquinolin-5-yl)-5-[4-(trifluoromethyl)phenyl]-2,4-pentadienamide] the pIC50 [1] was greater than 7.00 and the “pain threshold” value [2] was “significantly increases the pain threshold”.
In the case of `CN(C)c1ccc(/C(=C\C=C\C(=O)Nc2cccc3c2CC(O)CN3)c2ccc(C(F)(F)F)cc2)cc1.Cl.Cl` (stereo not drawn) [Compound 270, (2E,4Z)-5-[4-(N,N-Dimethylamino)phenyl]-N-(3-hydroxy-1,2,3,4-tetrahydroquinolin-5-yl)-5-[4-(trifluoromethyl)phenyl]-2,4-pentadienamide Dihydrochloride], the pIC50 [1] was greater than 7.00 and the “pain threshold” value [2] was “significantly increases the pain threshold”.
In the case of `O=C(/C=C/C=C(\c1ccc(OC2COC2)cc1)c1ccc(C(F)(F)F)cc1)Nc1cccc2c1CC(O)C(=O)N2` (stereo not drawn) [Compound 314, (2E,4Z)-N-(3-Hydroxy-2-oxo-1,2,3,4-tetrahydroquinolin-5-yl)-5-[4-(oxetan-3-yloxy)phenyl]-5-[4-(trifluoromethyl)phenyl]-2,4-pentadienamide], the pIC50 [1] was greater than 7.00 and the “pain threshold” value [2] was “significantly increases the pain threshold”.
For `O=C(/C=C/C=C(\c1ccc(F)cc1)c1ccc(C(F)(F)F)cc1)Nc1cccc2cnccc12` [Compound 74, (2E,4Z)-5-(4-Fluorophenyl)-N-(isoquinolin-5-yl)-5-[4-(trifluoromethyl)phenyl]-2,4-pentadienamide], the pIC50 [1] was greater than 7.00, the “pain threshold” value [2] was “significantly increases the pain threshold” and the melting point was 142 to 143 °C.
With `CCOc1ccc(/C(=C\C=C\C(=O)Nc2cccc3c2CC(O)C(=O)N3)c2ccc(C(F)(F)F)cc2)cc1` (stereo not drawn) [Compound 257, (2E,4Z)-N-(3-Hydroxy-2-oxo-1,2,3,4-tetrahydroquinolin-5-yl)-5-(4-ethoxyphenyl)-5-[4-(trifluoromethyl)phenyl]-2,4-pentadienamide] the pIC50 [1] was greater than 7.00 and the “pain threshold” value [2] was “significantly increases the pain threshold”.
Compound `O=C(/C=C/C=C(c1ccc(C(F)(F)F)cc1)c1ccc(C(F)(F)F)cc1)Nc1cncc(CO)c1` [Compound 25, (E)-N-[(5-Hydroxymethyl)pyridin-3-yl]-5,5-bis[4-(trifluoromethyl)phenyl]-2,4-pentadienamide] has a pIC50 [1] greater than 7.00 and a melting point of 255 to 257 °C.
Compound `CCOc1ccc(/C(=C\C=C\C(=O)Nc2ccccc2C(O)CO)c2ccc(C(F)(F)F)cc2)cc1` (stereo not drawn) [Compound 163, (2E,4Z)-N-[2-(1,2-Dihydroxyethyl)phenyl]-5-(4-ethoxyphenyl)-5-[4-(trifluoromethyl)phenyl]-2,4-pentadienamide] has a pIC50 [1] greater than 7.00.
Compound `O=C(/C=C/C=C(c1ccc(C(F)(F)F)cc1)c1ccc(C(F)(F)F)cc1)Nc1cccc2ccc(O)cc12` [Compound 10, (E)-N-(7-Hydroxynaphthalen-1-yl)-5,5-bis[4-(trifluoromethyl)phenyl]-2,4-pentadienamide] has a pIC50 [1] greater than 7.00 and a melting point of 249 to 251 °C.
With `CC(C)Oc1ccc(/C(=C\C=C\C(=O)Nc2cccc3[nH]ncc23)c2ccc(C(F)(F)F)cc2)cc1` [Compound 178, (2E,4Z)-N-(1H-Indazol-4-yl)-5-(4-isopropoxyphenyl)-5-[4-(trifluoromethyl)phenyl]-2,4-pentadienamide] the pIC50 [1] was greater than 7.00 and the “pain threshold” value [2] was “significantly increases the pain threshold”.
For `Cc1cccc(/C(=C\C=C\C(=O)Nc2cccc3c2CC(O)C(=O)N3)c2ccc(C(F)(F)F)cc2)c1` (stereo not drawn) [Compound 188, (2E,4Z)-N-(3-Hydroxy-2-oxo-1,2,3,4-tetrahydroquinolin-5-yl)-5-(3-methylphenyl)-5-[4-(trifluoromethyl)phenyl]-2,4-pentadienamide], the pIC50 [1] was greater than 7.00 and the “pain threshold” value [2] was “significantly increases the pain threshold”.
With `O=C(/C=C/C=C(/c1ccc(C(F)(F)F)cc1)c1ccco1)Nc1cccc2cnccc12` [Compound 63, (2E,4Z)-5-(Furan-2-yl)-N-(isoquinolin-5-yl)-5-[4-(trifluoromethyl)phenyl]-2,4-pentadienamide] the “pain threshold” value [2] was “significantly increases the pain threshold”.
With `CC(C)Oc1ccc(/C(=C\C=C\C(=O)Nc2cccc3c2CC(O)C(=O)N3)c2ccc(C(F)(F)F)cc2)cc1` (stereo not drawn) [Compound 229, (2E,4Z)-N-(3-Hydroxy-2-oxo-1,2,3,4-tetrahydroquinolin-5-yl)-5-(4-isopropoxyphenyl)-5-[4-(trifluoromethyl)phenyl]-2,4-pentadienamide] the pIC50 [1] was greater than 7.00 and the “pain threshold” value [2] was “significantly increases the pain threshold”.
With `CCOc1ccc(/C(=C\C=C\C(=O)Nc2cccc3c2CC(O)C(=O)N3)c2ccc(Cl)cc2)cc1` (stereo not drawn) [Compound 310, (2E,4E)-5-(4-Chlorophenyl)-5-(4-ethoxyphenyl)-N-(3-hydroxy-2-oxo-1,2,3,4-tetrahydroquinolin-5-yl)-2,4-pentadienamide] the pIC50 [1] was greater than 7.00 and the “pain threshold” value [2] was “significantly increases the pain threshold”.
